Columns and labels:
Male ICR mice [1] = conditions: mouse, in vivo, iv
[2] = format: physicochemical
Male ICR mice [3] = conditions: mouse, in vivo, iv; remark: listed apart in the source
Male ICR mice [4] = conditions: mouse, in vivo, iv, 0.7 mg/kg

CCCCCc1cc(O)c2c(c1)OC(C)(C)[C@@H]1CCC(C)=C[C@@H]21 [THC, Δ^9-Tetrahydrocannabinol]
inactive dose (Male ICR mice [1]): 0.7 mg/kg | recovery from aerosol [2]: ~87.5% | LD50 [95% CL's] (Male ICR mice [3]): 75.4 [66.5-85.5] mg/kg | TI (Male ICR mice [4]): 47
